HELM strings list units from the 5' end as sugar, base in round brackets, then linkage (d deoxyribose, r ribose, m 2'-O-methyl, p phosphodiester). Strings are as the collection lists them, not checked against the first reports. ss, as = sense and antisense strand; [fl2r] = 2'-fluoro
Details: siRNA
Further: test system not given here.

Substance: RNA1{r(G)p.r(C)p.r(C)p.r(U)p.[fl2r](C)p.r(U)p.r(C)p.[fl2r](U)p.r(A)p.r(U)p.r(C)p.r(C)p.r(U)p.[fl2r](U)p.r(A)p.r(G)p.r(C)p.r(U)p.r(U)p.r(T)p.r(T)}|RNA2{r(A)p.r(A)p.r(G)p.r(C)p.[fl2r](U)p.r(A)p.r(A)p.r(G)p.r(G)p.r(A)p.[fl2r](U)p.r(A)p.r(G)p.r(A)p.r(G)p.r(A)p.r(G)p.r(G)p.r(C)p.r(T)p.r(T)}$$$RNA1{StrandType:ss}|RNA2{StrandType:as}$
- target mRNA knockdown: 47%

Substance: RNA1{r(G)p.r(C)p.r(C)p.r(U)p.r(C)p.r(U)p.r(C)p.r(U)p.r(A)p.r(U)p.r(C)p.r(C)p.r(U)p.r(U)p.r(A)p.r(G)p.r(C)p.r(U)p.r(U)p.r(T)p.r(T)}|RNA2{r(A)p.r(A)p.r(G)p.r(C)p.[fl2r](U)p.r(A)p.r(A)p.r(G)p.r(G)p.r(A)p.[fl2r](U)p.r(A)p.r(G)p.r(A)p.r(G)p.r(A)p.r(G)p.r(G)p.r(C)p.r(T)p.r(T)}$$$RNA1{StrandType:ss}|RNA2{StrandType:as}$
- target mRNA knockdown: 48%

Substance: RNA1{r(G)p.r(C)p.r(G)p.r(A)p.r(G)p.m(C)p.r(A)p.r(G)p.r(A)p.r(G)p.r(A)p.r(A)p.r(U)p.r(C)p.m(U)p.r(A)p.r(C)p.r(C)p.r(U)p.r(T)p.r(T)}|RNA2{r(A)p.r(G)p.r(G)p.m(U)p.r(A)p.r(G)p.r(A)p.r(U)p.r(U)p.r(C)p.r(U)p.r(C)p.m(U)p.r(G)p.r(C)p.r(U)p.r(C)p.r(G)p.r(C)p.r(T)p.r(T)}$$$RNA1{StrandType:ss}|RNA2{StrandType:as}$
- target mRNA knockdown: 90%

Substance: RNA1{r(G)p.r(C)p.r(G)p.r(A)p.r(G)p.r(C)p.r(A)p.r(G)p.r(A)p.r(G)p.r(A)p.r(A)p.r(U)p.r(C)p.m(U)p.r(A)p.r(C)p.r(C)p.r(U)p.r(T)p.r(T)}|RNA2{r(A)p.r(G)p.r(G)p.m(U)p.r(A)p.r(G)p.r(A)p.r(U)p.r(U)p.r(C)p.r(U)p.r(C)p.r(U)p.r(G)p.r(C)p.r(U)p.r(C)p.r(G)p.r(C)p.r(T)p.r(T)}$$$RNA1{StrandType:ss}|RNA2{StrandType:as}$
- target mRNA knockdown: 90%

Substance: RNA1{r(G)p.r(C)p.r(G)p.r(C)p.r(U)p.r(G)p.r(C)p.r(U)p.r(G)p.r(G)p.r(U)p.r(G)p.r(C)p.r(C)p.r(A)p.r(A)p.r(C)p.r(C)p.r(C)p.d(T)p.d(T)}|RNA2{r(G)p.r(G)p.r(G)p.r(U)p.r(U)p.r(G)p.r(G)p.r(C)p.r(A)p.r(C)p.r(C)p.r(A)p.r(G)p.r(C)p.r(A)p.r(G)p.r(C)p.r(G)p.r(C)p.d(T)p.d(T)}$$$RNA1{StrandType:ss}|RNA2{StrandType:as}$
- target mRNA knockdown: 74%

Substance: RNA1{r(G)p.r(C)p.r(U)p.r(G)p.[fl2r](U)p.r(A)p.r(A)p.r(C)p.r(C)p.r(U)p.r(C)p.r(G)p.r(G)p.r(A)p.r(G)p.r(A)p.r(G)p.r(U)p.r(U)p.r(T)p.r(T)}|RNA2{r(A)p.r(A)p.r(C)p.r(U)p.r(C)p.r(U)p.r(C)p.r(C)p.r(G)p.r(A)p.r(G)p.r(G)p.r(U)p.[fl2r](U)p.r(A)p.r(C)p.r(A)p.r(G)p.r(C)p.r(T)p.r(T)}$$$RNA1{StrandType:ss}|RNA2{StrandType:as}$
- target mRNA knockdown: 69%

Substance: RNA1{r(G)p.r(C)p.r(U)p.r(G)p.r(A)p.r(A)p.r(C)p.[fl2r](U)p.r(A)p.r(G)p.r(U)p.r(C)p.r(G)p.r(A)p.r(A)p.r(A)p.r(G)p.r(A)p.r(A)p.r(T)p.r(T)}|RNA2{r(U)p.r(U)p.r(C)p.r(U)p.r(U)p.r(U)p.r(C)p.r(G)p.r(A)p.r(C)p.[fl2r](U)p.r(A)p.r(G)p.r(U)p.r(U)p.r(C)p.r(A)p.r(G)p.r(C)p.r(T)p.r(T)}$$$RNA1{StrandType:ss}|RNA2{StrandType:as}$
- target mRNA knockdown: 79%

Substance: RNA1{r(G)p.r(C)p.r(U)p.r(G)p.r(A)p.r(G)p.r(G)p.r(A)p.r(A)p.r(A)p.r(G)p.r(G)p.r(G)p.r(A)p.r(C)p.r(A)p.r(U)p.r(C)p.r(U)p.r(T)p.r(T)}|RNA2{r(A)p.r(G)p.m(A)p.m(U)p.r(G)p.r(U)p.r(C)p.r(C)p.r(C)p.r(U)p.r(U)p.r(U)p.r(C)p.r(C)p.r(U)p.r(C)p.r(A)p.r(G)p.r(C)p.r(T)p.r(T)}$$$RNA1{StrandType:ss}|RNA2{StrandType:as}$
- target mRNA knockdown: 78%

Substance: RNA1{r(G)p.r(C)p.r(U)p.r(U)p.m(U)p.m(A)p.r(A)p.r(G)p.r(G)p.r(A)p.r(A)p.r(C)p.m(U)p.r(G)p.r(G)p.r(A)p.r(A)p.r(G)p.r(G)p.r(T)p.r(T)}|RNA2{r(C)p.r(C)p.r(U)p.r(U)p.r(C)p.m(C)p.r(A)p.r(G)p.r(U)p.r(U)p.r(C)p.r(C)p.r(U)p.m(U)p.m(A)p.r(A)p.r(A)p.r(G)p.r(C)p.r(T)p.r(T)}$$$RNA1{StrandType:ss}|RNA2{StrandType:as}$
- target mRNA knockdown: 72%

Substance: RNA1{r(G)p.r(C)p.r(U)p.r(U)p.m(U)p.r(A)p.r(A)p.r(G)p.r(G)p.r(A)p.r(A)p.r(C)p.m(U)p.r(G)p.r(G)p.r(A)p.r(A)p.r(G)p.r(G)p.r(T)p.r(T)}|RNA2{r(C)p.r(C)p.r(U)p.r(U)p.r(C)p.m(C)p.r(A)p.r(G)p.r(U)p.r(U)p.r(C)p.r(C)p.r(U)p.m(U)p.r(A)p.r(A)p.r(A)p.r(G)p.r(C)p.r(T)p.r(T)}$$$RNA1{StrandType:ss}|RNA2{StrandType:as}$
- target mRNA knockdown: 37%

Substance: RNA1{r(G)p.r(C)p.r(U)p.r(U)p.r(C)p.r(G)p.r(G)p.r(A)p.r(A)p.r(A)p.r(C)p.[fl2r](U)p.[fl2r](G)p.r(G)p.r(A)p.[fl2r](C)p.r(A)p.r(U)p.r(C)p.r(T)p.r(T)}|RNA2{r(G)p.r(A)p.[fl2r](U)p.r(G)p.r(U)p.r(C)p.[fl2r](C)p.[fl2r](A)p.r(G)p.r(U)p.r(U)p.r(U)p.r(C)p.r(C)p.r(G)p.r(A)p.r(A)p.r(G)p.r(C)p.r(T)p.r(T)}$$$RNA1{StrandType:ss}|RNA2{StrandType:as}$
- target mRNA knockdown: 87%

Substance: RNA1{r(G)p.r(C)p.r(U)p.r(U)p.r(C)p.r(G)p.r(G)p.r(A)p.r(A)p.r(A)p.r(C)p.r(U)p.r(G)p.r(G)p.r(A)p.[fl2r](C)p.r(A)p.r(U)p.r(C)p.r(T)p.r(T)}|RNA2{r(G)p.r(A)p.[fl2r](U)p.r(G)p.r(U)p.r(C)p.[fl2r](C)p.r(A)p.r(G)p.r(U)p.r(U)p.r(U)p.r(C)p.r(C)p.r(G)p.r(A)p.r(A)p.r(G)p.r(C)p.r(T)p.r(T)}$$$RNA1{StrandType:ss}|RNA2{StrandType:as}$
- target mRNA knockdown: 90%

Substance: RNA1{r(G)p.r(C)p.r(U)p.r(U)p.r(U)p.m(A)p.r(A)p.r(G)p.r(G)p.r(A)p.r(A)p.r(C)p.m(U)p.r(G)p.r(G)p.r(A)p.r(A)p.r(G)p.r(G)p.r(T)p.r(T)}|RNA2{r(C)p.r(C)p.r(U)p.r(U)p.r(C)p.m(C)p.r(A)p.r(G)p.r(U)p.r(U)p.r(C)p.r(C)p.r(U)p.r(U)p.r(A)p.r(A)p.r(A)p.r(G)p.r(C)p.r(T)p.r(T)}$$$RNA1{StrandType:ss}|RNA2{StrandType:as}$
- target mRNA knockdown: 74%

Substance: RNA1{r(G)p.r(C)p.r(U)p.r(U)p.r(U)p.r(A)p.r(A)p.r(G)p.r(G)p.r(A)p.r(A)p.r(C)p.r(U)p.r(G)p.r(G)p.r(A)p.r(A)p.r(G)p.r(G)p.r(T)p.r(T)}|RNA2{r(C)p.r(C)p.r(U)p.r(U)p.r(C)p.r(C)p.r(A)p.r(G)p.r(U)p.r(U)p.r(C)p.r(C)p.r(U)p.m(U)p.r(A)p.r(A)p.r(A)p.r(G)p.r(C)p.r(T)p.r(T)}$$$RNA1{StrandType:ss}|RNA2{StrandType:as}$
- target mRNA knockdown: 37%

Substance: RNA1{r(G)p.r(G)p.m(U)p.m(A)p.r(G)p.r(A)p.r(A)p.m(U)p.r(A)p.r(G)p.r(G)p.r(U)p.r(U)p.r(U)p.r(U)p.r(C)p.r(C)p.r(C)p.r(C)p.r(T)p.r(T)}|RNA2{r(G)p.r(G)p.r(G)p.r(G)p.r(A)p.r(A)p.r(A)p.r(A)p.r(C)p.r(C)p.m(U)p.r(A)p.r(U)p.r(U)p.r(C)p.m(U)p.r(A)p.r(C)p.r(C)p.r(T)p.r(T)}$$$RNA1{StrandType:ss}|RNA2{StrandType:as}$
- target mRNA knockdown: 45%

Substance: RNA1{r(G)p.r(G)p.m(U)p.r(A)p.r(G)p.r(A)p.r(A)p.r(U)p.r(A)p.r(G)p.r(G)p.r(U)p.r(U)p.r(U)p.r(U)p.r(C)p.r(C)p.r(C)p.r(C)p.r(T)p.r(T)}|RNA2{r(G)p.r(G)p.r(G)p.r(G)p.r(A)p.r(A)p.r(A)p.r(A)p.r(C)p.r(C)p.m(U)p.r(A)p.r(U)p.r(U)p.r(C)p.r(U)p.r(A)p.r(C)p.r(C)p.r(T)p.r(T)}$$$RNA1{StrandType:ss}|RNA2{StrandType:as}$
- target mRNA knockdown: 82%

Substance: RNA1{r(G)p.r(G)p.m(U)p.r(A)p.r(G)p.r(G)p.r(G)p.r(U)p.m(U)p.r(G)p.r(A)p.r(A)p.r(G)p.r(A)p.r(G)p.r(A)p.r(C)p.r(U)p.r(U)p.r(T)p.r(T)}|RNA2{r(A)p.r(A)p.r(G)p.r(U)p.r(C)p.r(U)p.r(C)p.r(U)p.r(U)p.m(C)p.r(A)p.r(A)p.r(C)p.r(C)p.r(C)p.m(U)p.r(A)p.r(C)p.r(C)p.r(T)p.r(T)}$$$RNA1{StrandType:ss}|RNA2{StrandType:as}$
- target mRNA knockdown: 94%

Substance: RNA1{r(G)p.r(G)p.r(A)p.m(C)p.m(U)p.r(A)p.m(C)p.m(U)p.r(A)p.r(A)p.m(C)p.m(C)p.m(U)p.m(C)p.m(C)p.r(A)p.r(G)p.m(U)p.m(U)p.r(T)p.r(T)}|RNA2{r(A)p.r(A)p.m(C)p.m(U)p.r(G)p.r(G)p.r(A)p.r(G)p.r(G)p.m(U)p.m(U)p.r(A)p.r(G)p.m(U)p.r(A)p.r(G)p.m(U)p.m(C)p.m(C)p.r(T)p.r(T)}$$$RNA1{StrandType:ss}|RNA2{StrandType:as}$
- target mRNA knockdown: 7%

Substance: RNA1{r(G)p.r(G)p.r(A)p.r(A)p.m(G)p.r(U)p.r(A)p.r(A)p.r(G)p.r(G)p.r(A)p.r(C)p.r(C)p.r(A)p.r(G)p.r(A)p.r(G)p.r(A)p.r(C)p.r(T)p.r(T)}|RNA2{r(G)p.r(U)p.r(C)p.r(U)p.r(C)p.r(U)p.r(G)p.r(G)p.r(U)p.r(C)p.r(C)p.r(U)p.m(U)p.r(A)p.r(C)p.r(U)p.r(U)p.r(C)p.r(C)p.r(T)p.r(T)}$$$RNA1{StrandType:ss}|RNA2{StrandType:as}$
- target mRNA knockdown: 44%

Substance: RNA1{r(G)p.r(G)p.r(A)p.r(A)p.r(G)p.m(U)p.r(A)p.r(A)p.r(G)p.r(G)p.r(A)p.r(C)p.m(C)p.r(A)p.r(G)p.r(A)p.r(G)p.r(A)p.r(C)p.r(T)p.r(T)}|RNA2{r(G)p.r(U)p.r(C)p.r(U)p.r(C)p.m(U)p.r(G)p.r(G)p.r(U)p.r(C)p.r(C)p.r(U)p.m(U)p.r(A)p.r(C)p.r(U)p.r(U)p.r(C)p.r(C)p.r(T)p.r(T)}$$$RNA1{StrandType:ss}|RNA2{StrandType:as}$
- target mRNA knockdown: 41%
